In patent US20040023299A1, “Diagnosis of liver disease” (priority 2000, published 2004):
Read-outs that look alike come from different tables or passages of the source.

Conditions: rats
Procedure: Chronic liver disease was established by exposing the animals of the 3 experimental groups to weekly intra-gastric administration of CCl4. A starting dose of 80 μl was used and increased weekly, based on the weight of the animals. Nothing was administered to the control group. All the animals were weighed on day one and the experimental groups started with their 80 μl CCl4. After three days the animals were again weighed to determine the dose for the second week. That was the procedure for the administration of the CC4 l during the entire experiment. On day three of week five, the scanning of group 1 started. Anaesthesia in each case was induced with an intraperitoneal injection of sodium pentobarbitone 6% solution (Sagatal, Kryon Laboratories Pty Ltd., Benrose, Gauteng, S. A). […] After the completion of the acquisition, the rats were terminated by an intravenous overdose of sodium pentobarbitone. The livers were taken out, stored in a 10% formalin solution until the next day and then processed and stained with Haematoxylin and Eosin, Reticulin and Cyrus red.
Liver sections of the rats were stained with H&E, Masson Trichrome and Reticulin stains. The amount of necrosis and fibrosis were interpreted by an experienced hepatopathologist and scored according to a classification system whereby 1 was mild necrosis or fibrosis and 4 severe.

[1] = weekly intra-gastric CCl4, after 5 weeks
[2] = weekly intra-gastric CCl4, after 7 weeks
[3] = weekly intra-gastric CCl4, after 9 weeks

ClC(Cl)(Cl)Cl [CCl4]
average score for fibrosis (1 mild, 4 severe) [1]: 1.9
average score for necrosis (1 mild, 4 severe) [1]: 1.9
average score for fibrosis (1 mild, 4 severe) [2]: 1.9
average score for necrosis (1 mild, 4 severe) [2]: 1.7
average score for fibrosis (1 mild, 4 severe) [3]: 2.1
average score for necrosis (1 mild, 4 severe) [3]: 1.4
